{"source": "patent US20130253179A1", "about": "“Functionalization Processes and Reactants Used in Such Processes Using an Isatoic Anhydride or a Derivative Thereof, Biological Molecules Thus Treated and Kits” (priority 2010, published 2013)", "key": {"[1]": {"tested_on": "ORN with 27 bases in mixture with an ODN with 27 bases", "test": "Selective functionalisation, capture, cleaving and elution of an ORN from an ORN/ODN mixture (HPLC 260 nm)", "conditions": "injection 2, after two functionalisation/precipitation steps, 65° C. 1 h", "description": "We have a 27-mer ODN (Eurogentec ref. 21438-DNA batch #2177673, Sequence: 5′-AAC-CGC-AGT-GAC-ACC-CTC-ATC-ATT-ACA-3′) in 650 μM solution in water, and a 27-mer ORN (Eurogentec ref. 21437-RNA batch #2177672, Sequence: 5′-AAC-CGC-AGU-GAC-ACC-CUC-AUC-AUU-ACA-3′) in 952 μM solution in water. 15.4 μL of ODN and 17.5 μL of ORN are mixed and topped up with 67.1 μL of ultrapure water.\n80 μL of the mixture (8 nmoles) are evaporated until dry and taken up in: 10 μL of water, 5 μL of isatoic anhydride Biot PEG4(SS)IA Me (24); […]), in 480 mM DMF solution, and 5 μL of Triethyl ammonium acetate buffer in 1 M solution in water. The medium is placed in the oven at 65° C. for one hour.\nThe medium is then subjected to a triple precipitation with lithium perchlorate LiClO4 and with acetone, in order to free it from the residual BiotPEG4 (SS) IA Me: 18 μL of LiClO4 in 3M solution in water and 262 μL of water are added to the medium. After vortex stirring, 900 μL of acetone are added, then the medium is agitated once again and centrifuged (5 minutes at 13,000 rpm at ambient temperature). The supernatant is then removed carefully and the same method is repeated twice more with 18 μL of LiClO4 and 282 μL of water. Finally, the medium is washed with 900 μL of acetone before stirring and centrifuging. The greater part of the supernatant is removed carefully before drying in the rotary evaporator. […]"}, "[2]": {"test": "Solubility in water"}}}
{"smiles": "Cn1c(=O)oc(=O)c2cc(NC(=O)CCSSCCNC(=O)CCOCCOCCOCCOCCNC(=O)CCCCC3SCC4NC(=O)NC43)ccc21", "note": "(centres unmarked) [5Biot PEG4 SS IA Me 24]", "values": [{"measurement": "initial ORN functionalised", "setting": "[1]", "value": 95, "unit": "%"}]}
{"smiles": "CCN1/C(=C\\C=C\\C2=[N+](CCCCCC(=O)Nc3ccc4c(c3)c(=O)oc(=O)n4C)c3ccc(S(=O)(=O)[O-])cc3C2(C)C)C(C)(C)c2cc(S(=O)(=O)[O-])ccc21.[K+]", "note": "[Cy3 IA Me 13, 1-methyl 5-Cy3-isatoic anhydride]", "values": [{"measurement": "solubility", "setting": "[2]", "value": "> 100", "unit": "mM"}]}
